What was measured:
mPTP [1] = assay: mPTP activity (Ca2+ retention) assay in isolated rat liver mitochondria; assay type: biochemical; conditions: examples tested by different contract research organisations, believed comparable
In short: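 pIC50 was taken from Fluo5N fluorescence at 10 min after a 75 μM CaCl2 bolus, scaled between DMSO (0%) and 5 μM cyclosporin A (100%). Compounds, ten half-log concentrations from 30 μM to 1 nM final, sat 10 min at RT with fresh female Sprague Dawley rat liver mitochondria energized by succinate plus rotenone.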

mPTP [2] = assay: mPTP activity assay in isolated rat brain mitochondria; assay type: biochemical; conditions: fluorescence at 10 min timepoint
In short: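 Fresh brain mitochondria from female Sprague Dawley rats, digitonin-washed, in pH 7.4 mannitol/MOPS/KCl buffer with pyruvate, malate, ADP, oligomycin A and 2 μM Fluo5N. Preincubated with compounds 10 min at RT. Fluo5N fluorescence then read every 3 sec for 10 min on FLIPR Tetra.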

mPTP [3] = assay: Human platelet mitochondria assay (annexin V / PS exposure by flow cytometry); assay type: cell-based; conditions: human blood platelets stimulated with thrombin/convulxin/calcium; % AnV-APC positive platelets
Method: The mPTP cell based assay was performed using a transformative functional cell-(human blood platelets)-based assay by flow cytometry. Procoagulant platelets expose phosphatidylserine (PS), allowing a burst of thrombin generation that is responsible for producing an occlusive thrombus. While an increase in cytosolic Ca^2+ concentration is required for deriving platelets to become activated, a higher and more sustained increases in cytosolic Ca^2+ concentration is needed to commit some platelets to becoming procoagulant. Simulation of platelets results in the rapid influx of Ca^2+ across the platelet membrane. The Ca^2+ is then sequestered by mitochondria until the threshold for mPTP opening is reached, at which point the pore opens and the mitochondrial membrane potential is dissipated. mPTP opening and subsequent disruption in mitochondrial membrane potential leads to release of a high concentration of calcium stored in mitochondria into the platelet's cytosol (“supramaximal calcium signal” [1]) which is known to be a requisite initiating signal transduction leading to externalisation of procoagulant PS to the outer leaflet of platelets' plasma membrane. PS externalisation of stimulated platelets can be quantified in live platelets using standard annexin V (AnV) labelling by flow cytometry, enabling pharmacological characterisation of mPTP inhibitors.
Fresh human blood (9 ml) was collected from consenting donors into 3.2% sodium citrate. Acid citrate dextrose (85 mM tri-sodium citrate, 71 mM citric acid, and 111 mM D-glucose) was added (1:7 vol/vol) and platelet-rich plasma was separated by centrifugation (200 g, 10 minutes, ambient temperature, and without any brake). Platelets were pelleted by centrifugation (600 g, 10 minutes, ambient temperature) in the presence of prostaglandin E1 (100 nM) and apyrase (0.02 U/mL). Pelleted platelets were resuspended in N-2-hydroxyethylpiperazine-N′-2-ethanesulfonic acid (HEPES)-buffered saline supplemented with D-glucose (135 mM NaCl, 10 mM HEPES, 3 mM KCl, 1 mM MgCl2, 0.34 mM NaH2PO4, 5 mM D-glucose, 0.1% bovine serum albumin, pH 7.4.) and apyrase (0.02 U/mL). Platelets were rested for 30 minutes at 30° C. before treatment protocols were initiated.
Test compounds were prepared from 10 mM stocks in DMSO. Serial dilution of search test compounds stamped in duplicate into a 96 well plate using Multidrop Pico 8 Digital Dispenser. Platelets were loaded and incubated for 30 min at room temperature. Then a stimulation mix containing Thrombin (FAC: 0.5 U/ml)/Convulxin (FAC: 0.05 μg/ml)/Calcium (FAC: 2 mM) added per well except control/not stimulated wells (This is low signal control). Some wells received no treatment but DMSO vehicle control and used as high signal controls (FAC of DMSO set at 0.1% in all wells of the 96 well plate). The reaction mix incubated for 10 min at room temperature. During last 2 min of stimulation AnV-APC was added to detect surface PS exposure. Samples ten fixed and fluorescence was detected by MACSQuant X flow cytometry and 10 000 platelet events were collected. The percentage of AnV-APC positive platelets was calculated for each well. IC50 for each compound was then calculated using a standard four parameter curve fit model (GraphPad Prism).

Compound: CC(CNC(=O)c1nccc(=O)[nH]1)(Cc1ccc(F)cc1F)C1CC1 (single isomer, unassigned) [Example 243, N-(2-cyclopropyl-3-(2,4-difluorophenyl)-2-methylpropyl)-6-oxo-1,6-dihydropyrimidine-2-carboxamide]
- mPTP Rat liver pIC50 (mPTP [1]): 6.91
- mPTP Rat brain pIC50 (mPTP [2]): 7.93
- pIC50 (mPTP [3]): 7.36

Compound: CC(CNC(=O)c1nccc(=O)[nH]1)(Cc1ccc(F)cc1)C1CC1 (single isomer, unassigned) [Example 252]
- mPTP Rat liver pIC50 (mPTP [1]): 6.82
- mPTP Rat brain pIC50 (mPTP [2]): 7.91
- pIC50 (mPTP [3]): 7.42

Compound: Cn1nc(C(=O)NCC2(Cc3ccc(F)cc3F)CCC2)[nH]c1=O [Example 22, N-((1-(2,4-difluorobenzyl)cyclobutyl)methyl)-1-methyl-5-oxo-4,5-dihydro-1H-1,2,4-triazole-3-carboxamide]
- mPTP Rat liver pIC50 (mPTP [1]): 6.79
- mPTP Rat brain pIC50 (mPTP [2]): 7.75
- pIC50 (mPTP [3]): 7.14

Compound: Cn1nc(C(=O)NCC(C)(Cc2ccc(F)cc2F)C2CC2)[nH]c1=O (single isomer, unassigned) [Example 239, N-(2-cyclopropyl-3-(2,4-difluorophenyl)-2-methylpropyl)-1-methyl-5-oxo-4,5-dihydro-1H-1,2,4-triazole-3-carboxamide]
- mPTP Rat liver pIC50 (mPTP [1]): 7.10
- mPTP Rat brain pIC50 (mPTP [2]): 8.07
- pIC50 (mPTP [3]): 7.39

Compound: Cn1nc(C(=O)NC[C@H](Cc2c(F)cc(F)cc2F)C2CC2)[nH]c1=O [Example 117, (R)—N-(2-cyclopropyl-3-(2,4,6-trifluorophenyl)propyl)-1-methyl-5-oxo-4,5-dihydro-1H-1,2,4-triazole-3-carboxamide]
- mPTP Rat liver pIC50 (mPTP [1]): 6.47
- mPTP Rat brain pIC50 (mPTP [2]): 7.56
- pIC50 (mPTP [3]): 6.90

Compound: O=C(NCC1(Cc2ccc(F)cc2F)CC12CC2)c1nccc(=O)[nH]1 (single isomer, unassigned) [Example 235]
- mPTP Rat liver pIC50 (mPTP [1]): 6.79
- mPTP Rat brain pIC50 (mPTP [2]): 7.65
- pIC50 (mPTP [3]): 7.31

Compound: CC(c1ccccc1)C1(CNC(=O)c2nn(C)c(=O)[nH]2)CCC1 (single isomer, unassigned) [Example 26, 1-methyl-5-oxo-N-((1-(1-phenylethyl)cyclobutyl)methyl)-4,5-dihydro-1H-1,2,4-triazole-3-carboxamide]
- mPTP Rat liver pIC50 (mPTP [1]): 6.87
- mPTP Rat brain pIC50 (mPTP [2]): 7.60
- pIC50 (mPTP [3]): 6.77

Compound: CC(c1ccccc1)C1(CNC(=O)c2nn(C)c(=O)[nH]2)CCC1 (single isomer, unassigned) [Example 27, 1-methyl-5-oxo-N-((1-(1-phenylethyl)cyclobutyl)methyl)-4,5-dihydro-1H-1,2,4-triazole-3-carboxamide]
- mPTP Rat liver pIC50 (mPTP [1]): 5.49
- mPTP Rat brain pIC50 (mPTP [2]): 6.25
- pIC50 (mPTP [3]): 5.70

Compound: Cn1nc(C(=O)NC[C@H](Cc2ccc(F)cc2F)C2CC2)[nH]c1=O [Example 96, (R)—N-(2-Cyclopropyl-3-(2,4-difluorophenyl)propyl)-1-methyl-5-oxo-4,5-dihydro-1H-1,2,4-triazole-3-carboxamide]
- mPTP Rat liver pIC50 (mPTP [1]): 6.76
- mPTP Rat brain pIC50 (mPTP [2]): 7.91
- pIC50 (mPTP [3]): 7.43

From patent US12491185B2, “Inhibitors of mPTP” (NRG Therapeutics Ltd, priority 2023, dated 2025)
